# Measured values: EP1513525B1, “USE OF MGLUR5 ANTAGONISTS FOR THE TREATMENT OF GERD” (AstraZeneca AB, priority 2002, dated 2003)
# Assays:
# TLESRs [1] = assay: Screening for compounds active against TLESR, Barostat model (nutrient meal followed by air infusion, intragastric pressure held at 10±1 mmHg); type: in vivo, Adult Labrador retrievers; settings: inhibition of the number of TLESRs, infusion during 55 min
# Description: (§1) Adult Labrador retrievers of both genders, trained to stand in a Pavlov sling, are used. Mucosa-to-skin esophagostomies are formed and the dogs are allowed to recover completely before any experiments are done.
# (§2) In brief, after fasting for approximately 17 h with free supply of water, a multilumen sleeve/sidehole assembly (Dentsleeve, Adelaide, South Australia) is introduced through the esophagostomy to measure gastric, lower esophageal sphincter (LES) and esophageal pressures. The assembly is perfused with water using a low-compliance manometric perfusion pump (Dentsleeve, Adelaide, South Australia). An air-perfused tube is passed in the oral direction to measure swallows, and an antimony electrode monitored pH, 3 cm above the LES. All signals are amplified and acquired on a personal computer at 10 Hz.
# Ten min after i.v. administration, a nutrient meal (10% peptone, 5% D-glucose, 5% Intralipid, pH 3.0) is infused into the stomach through the central lumen of the assembly at 100 ml/min to a final volume of 30 ml/kg. Immediately following the meal, air is insufflated at 40 ml/min. In an alternative model (Barostat model), the infusion of the nutrient meal is followed by air infusion at a rate of 500 ml/min until a intragastric pressure of 10±1 mmHg is obtained. […]
# TLESRs [2] = assay: Screening for compounds active against TLESR, standard model (nutrient meal followed by air insufflation at 40 ml/min); type: in vivo, Adult Labrador retrievers
# Description: as §1, §2
# When a baseline measurement free from fasting gastric/LES phase III motor activity has been obtained, placebo (0.9% NaCl) or test compound is administered intravenously (i.v., 0.5 ml/kg) in a foreleg vein. Ten min after i.v. administration, a nutrient meal (10% peptone, 5% D-glucose, 5% Intralipid, pH 3.0) is infused into the stomach through the central lumen of the assembly at 100 ml/min to a final volume of 30 ml/kg. Immediately following the meal, air is insufflated at 40 ml/min. In an alternative model (Barostat model), the infusion of the nutrient meal is followed by air infusion at a rate of 500 ml/min until a intragastric pressure of 10±1 mmHg is obtained. The pressure is then maintained at this level throughout the experiment using the infusion pump for further air infusion or for venting air from the stomach. The experimental time from start of nutrient infusion to end of air insufflation is 45 min. The procedure has been validated as a reliable means of triggering TLESRs.
# TLESRs is defined as a decrease in lower esophageal sphincter pressure (with reference to intragastric pressure) at a rate of >1 mmHg/s. The relaxation should not be preceded by a pharyngeal signal ≤2s before its onset in which case the relaxation is classified as swallow-induced. The pressure difference between the LES and the stomach should be less than 2 mmHg, and the duration of the complete relaxation longer than 1 s.
# 2-Methyl-6-(phenylethynyl)-pyridine (MPEP) was prepared according to the procedure described by K. Sonogashira et al. in Tetrahedron Lett. (1975), 50, 4467-4470. After purification by column chromatography (SiO2), the hydrochloride salt (the hydrochloride salt of 2-methyl-6-(phenylethynyl)-pyridine is also commercially available from e.g. Tocris) was prepared by introducing HCl(g) to an ice-cooled Et2O-solution of the product. The hydrochloride salt of MPEP was tested on adult Labrador retrievers of both genders in accordance with the test model described above.
# Inhibition of the number of TLESRs was calculated with regard to the five preceding control experiments for each dog, and the results as set out in Tables 1.1 and 1.2 below were achieved. Table 1.1 - Standard model
SMILES,"% INHIBITION ± SEM (N) (TLESRs [1]; dose 1.1 µmol/kg/h, N=4 dogs)","% INHIBITION ± SEM (N) (TLESRs [1]; dose 2.2 µmol/kg/h, N=2 dogs)","% INHIBITION ± SEM (N) (TLESRs [2]; inhibition of the number of TLESRs vs five preceding control experiments per dog, dose 1.4 µmol/kg i.v., N=4 dogs)","% INHIBITION ± SEM (N) (TLESRs [2]; inhibition of the number of TLESRs vs five preceding control experiments per dog, dose 4.3 µmol/kg i.v., N=4 dogs)","% INHIBITION ± SEM (N) (TLESRs [2]; inhibition of the number of TLESRs vs five preceding control experiments per dog, dose 8.7 µmol/kg i.v., N=3 dogs)","% INHIBITION ± SEM (N) (TLESRs [2]; inhibition of the number of TLESRs, dose 4 µmol/kg/h, infusion during 60 min, N=4 dogs)","% INHIBITION ± SEM (N) (TLESRs [2]; inhibition of the number of TLESRs, dose 6 µmol/kg/h, infusion during 60 min, N=2 dogs)"
"COCc1cc(C#N)cc(-c2nc(-c3ccc(F)cn3)no2)c1 [3-[3-(5-fluoropyridin-2-yl)-1,2,4-oxadiazol-5-yl]-5-(methoxymethyl)benzonitrile]",58 ± 11 (4) %,83 ± 17 (2) %,,,,,
"Cc1cccc(C#Cc2ccccc2)n1 [MPEP, 2-Methyl-6-(phenylethynyl)-pyridine]",,,30 ± 5 (4) %,57 ± 8 (4) %,59 ± 11 (3) %,32 ± 13 (4) %,43 ± 3 (2) %
